Source: US20260027116A1, “Methods of Treating Chronic Graft-Versus-Host Disease Following Allogeneic Hematopoietic Stem Cell Transplantation” (Kadmon Corporation, LLC, priority 2022, published 2026)

Tested on: cGVHD symptom burden
Assay: Example 1: Lee Symptom Scale (LSS) score
Format: in vivo, human
Protocol: Lee Symptom Scale (LSS) summary score measures the effect on patients' functioning and well-being. The Lee Symptom Scale is a 30-item scale developed to measure the symptoms of cGVHD and is described in Lec S J, Cook E F, Soiffer R, Antin J H. Development and validation of a scale to measure symptoms of chronic graft-versushost disease. Biol Blood Marrow Transplant 2002; 8:444-452.
All responses were assessed by the investigators.
Change From Baseline in Overall Score on Lee cGvHD Symptom Scale at Specified Time Points. Lee cGVHD symptom scale, a patient-reported symptom scale used to measure symptom burden and has 7 subscales (Skin, Eyes and Mouth, Breathing, Eating and Digestion, Muscles and Joints, Energy, and Mental and Emotional) with ratings as follows: 0—Not at all, 1—Slightly, 2—Moderately, 3—Quite a bit, 4—Extremely, with lower values representing better outcome. Score for each subscale was normalized to a score ranged from 0 to 100, where higher score=worse symptoms. An overall score was calculated as average of these 7 subscales. EOT visit was performed within 3 days after the participant's last dose of study drug. Baseline value was defined as valid and last non-missing value obtained within 28 days prior to participant receiving first study medication. […] Analysis was performed on mITT population. Here, ‘number analyzed’=participants with available data for each specified category. Here, ‘0’ in the number analyzed field signifies that none of the participants were available for the analysis at the specified time points.

## CC(C)NC(=O)COc1cccc(-c2nc(Nc3ccc4[nH]ncc4c3)c3ccccc3n2)c1 [Belumosudil, 2-{3-[4-(1H-indazol-5-ylamino)-2-quinazolinyl]phenoxy}-N-(propan-2-yl) acetamide]
Cohort 2 200 mg BID
  LSS improvement, nonresponder, n/N: 4/5
  LSS improvement, responder, n/N: 3/11
Cohort 2: 200 mg BID, Cycle 3, Day 1
  Change From Baseline in Overall Score on Lee cGvHD Symptom Scale, Mean (Standard Deviation): 0.5 (7.3) score on a scale
Cohort 2: 200 mg BID, Cycle 5, Day 1
  Change From Baseline in Overall Score on Lee cGvHD Symptom Scale, Mean (Standard Deviation): −3.7 (7.0) score on a scale
Cohort 2: 200 mg BID, Cycle 7, Day 1
  Change From Baseline in Overall Score on Lee cGvHD Symptom Scale, Mean (Standard Deviation): −2.2 (8.8) score on a scale
Cohort 2: 200 mg BID, Cycle 8, Day 1
  Change From Baseline in Overall Score on Lee cGvHD Symptom Scale, Mean (Standard Deviation): −7.1 (10.1) score on a scale
Cohort 2: 200 mg BID, Cycle 9, Day 1
  Change From Baseline in Overall Score on Lee cGvHD Symptom Scale, Mean (Standard Deviation): −4.2 (5.5) score on a scale
Cohort 2: 200 mg BID, Cycle 10, Day 1
  Change From Baseline in Overall Score on Lee cGvHD Symptom Scale, Mean (Standard Deviation): −2.7 (6.1) score on a scale
Cohort 2: 200 mg BID, Cycle 11, Day 1
  Change From Baseline in Overall Score on Lee cGvHD Symptom Scale, Mean (Standard Deviation): −5.5 (6.0) score on a scale
Cohort 2: 200 mg BID, Cycle 12, Day 1
  Change From Baseline in Overall Score on Lee cGvHD Symptom Scale, Mean (Standard Deviation): −7.6 (7.7) score on a scale
Cohort 2: 200 mg BID, Cycle 13, Day 1
  Change From Baseline in Overall Score on Lee cGvHD Symptom Scale, Mean (Standard Deviation): −5.9 (8.8) score on a scale
Cohort 2: 200 mg BID, Cycle 14, Day 1
  Change From Baseline in Overall Score on Lee cGvHD Symptom Scale, Mean (Standard Deviation): −5.0 (7.3) score on a scale
Cohort 2: 200 mg BID, Cycle 15, Day 1
  Change From Baseline in Overall Score on Lee cGvHD Symptom Scale, Mean (Standard Deviation): −6.8 (7.0) score on a scale
Cohort 2: 200 mg BID, Cycle 16, Day 1
  Change From Baseline in Overall Score on Lee cGvHD Symptom Scale, Mean (Standard Deviation): −6.9 (7.6) score on a scale
Cohort 2: 200 mg BID, Cycle 27, Day 1
  Change From Baseline in Overall Score on Lee cGvHD Symptom Scale, Mean (Standard Deviation): −13.2 (6.6) score on a scale
Cohort 2: 200 mg BID, Cycle 29, Day 1
  Change From Baseline in Overall Score on Lee cGvHD Symptom Scale, Mean (Standard Deviation): −11.0 (7.3) score on a scale
Cohort 2: 200 mg BID, Cycle 31, Day 1
  Change From Baseline in Overall Score on Lee cGvHD Symptom Scale, Mean (Standard Deviation): −15.6 (4.3) score on a scale
Cohort 2: 200 mg BID, Cycle 33, Day 1
  Change From Baseline in Overall Score on Lee cGvHD Symptom Scale, Mean (Standard Deviation): −13.5 (9.0) score on a scale
Cohort 2: 200 mg BID, Cycle 35, Day 1
  Change From Baseline in Overall Score on Lee cGvHD Symptom Scale, Mean (Standard Deviation): −11.0 (12.4) score on a scale
Cohort 2: 200 mg BID, Cycle 37, Day 1
  Change From Baseline in Overall Score on Lee cGvHD Symptom Scale, Mean (Standard Deviation): −13.6 (8.1) score on a scale
Cohort 2: 200 mg BID, Cycle 39, Day 1
  Change From Baseline in Overall Score on Lee cGvHD Symptom Scale, Mean (Standard Deviation): −14.3 (8.5) score on a scale
Cohort 2: 200 mg BID, Cycle 41, Day 1
  Change From Baseline in Overall Score on Lee cGvHD Symptom Scale, Mean (Standard Deviation): −19.3 (—) score on a scale
Cohort 2: 200 mg BID, Cycle 43, Day 1
  Change From Baseline in Overall Score on Lee cGvHD Symptom Scale, Mean (Standard Deviation): −19.9 (—) score on a scale
Cohort 2: 200 mg BID, Cycle 47, Day 1
  Change From Baseline in Overall Score on Lee cGvHD Symptom Scale, Mean (Standard Deviation): −16.8 (—) score on a scale
Cohort 2: 200 mg BID, Cycle 49, Day 1
  Change From Baseline in Overall Score on Lee cGvHD Symptom Scale, Mean (Standard Deviation): −15.4 (—) score on a scale
Cohort 2: 200 mg BID, EOT
  Change From Baseline in Overall Score on Lee cGvHD Symptom Scale, Mean (Standard Deviation): −2.4 (10.9) score on a scale
Cohort 3 400 mg QD
  LSS improvement, nonresponder, n/N: 2/8
  LSS improvement, responder, n/N: 9/13
Cohort 3: 400 mg QD, Cycle 2, Day 1
  Change From Baseline in Overall Score on Lee cGvHD Symptom Scale, Mean (Standard Deviation): −5.2 (6.3) score on a scale
Cohort 3: 400 mg QD, Cycle 3, Day 1
  Change From Baseline in Overall Score on Lee cGvHD Symptom Scale, Mean (Standard Deviation): −4.3 (8.2) score on a scale
Cohort 3: 400 mg QD, Cycle 4, Day 1
  Change From Baseline in Overall Score on Lee cGvHD Symptom Scale, Mean (Standard Deviation): −2.7 (8.2) score on a scale
Cohort 3: 400 mg QD, Cycle 5, Day 1
  Change From Baseline in Overall Score on Lee cGvHD Symptom Scale, Mean (Standard Deviation): −0.5 (10.8) score on a scale
Cohort 3: 400 mg QD, Cycle 6, Day 1
  Change From Baseline in Overall Score on Lee cGvHD Symptom Scale, Mean (Standard Deviation): −0.8 (9.3) score on a scale
Cohort 3: 400 mg QD, Cycle 7, Day 1
  Change From Baseline in Overall Score on Lee cGvHD Symptom Scale, Mean (Standard Deviation): −2.0 (12.3) score on a scale
Cohort 3: 400 mg QD, Cycle 8, Day 1
  Change From Baseline in Overall Score on Lee cGvHD Symptom Scale, Mean (Standard Deviation): −2.9 (10.9) score on a scale
Cohort 3: 400 mg QD, Cycle 9, Day 1
  Change From Baseline in Overall Score on Lee cGvHD Symptom Scale, Mean (Standard Deviation): −3.6 (10.2) score on a scale
Cohort 3: 400 mg QD, Cycle 10, Day 1
  Change From Baseline in Overall Score on Lee cGvHD Symptom Scale, Mean (Standard Deviation): −3.7 (9.9) score on a scale
Cohort 3: 400 mg QD, Cycle 11, Day 1
  Change From Baseline in Overall Score on Lee cGvHD Symptom Scale, Mean (Standard Deviation): −4.5 (6.1) score on a scale
Cohort 3: 400 mg QD, Cycle 12, Day 1
  Change From Baseline in Overall Score on Lee cGvHD Symptom Scale, Mean (Standard Deviation): −2.8 (6.0) score on a scale
Cohort 3: 400 mg QD, Cycle 13, Day 1
  Change From Baseline in Overall Score on Lee cGvHD Symptom Scale, Mean (Standard Deviation): −0.6 (7.1) score on a scale
Cohort 3: 400 mg QD, Cycle 14, Day 1
  Change From Baseline in Overall Score on Lee cGvHD Symptom Scale, Mean (Standard Deviation): −1.5 (7.7) score on a scale
Cohort 3: 400 mg QD, Cycle 15, Day 1
  Change From Baseline in Overall Score on Lee cGvHD Symptom Scale, Mean (Standard Deviation): −3.2 (8.2) score on a scale
Cohort 3: 400 mg QD, Cycle 16, Day 1
  Change From Baseline in Overall Score on Lee cGvHD Symptom Scale, Mean (Standard Deviation): 1.9 (7.9) score on a scale
Cohort 3: 400 mg QD, Cycle 27, Day 1
  Change From Baseline in Overall Score on Lee cGvHD Symptom Scale, Mean (Standard Deviation): −6.0 (9.6) score on a scale
Cohort 3: 400 mg QD, Cycle 28, Day 1
  Change From Baseline in Overall Score on Lee cGvHD Symptom Scale, Mean (Standard Deviation): 2.6 (—) score on a scale
Cohort 3: 400 mg QD, Cycle 29, Day 1
  Change From Baseline in Overall Score on Lee cGvHD Symptom Scale, Mean (Standard Deviation): −3.7 (13.0) score on a scale
Cohort 3: 400 mg QD, Cycle 31, Day 1
  Change From Baseline in Overall Score on Lee cGvHD Symptom Scale, Mean (Standard Deviation): −12.9 (—) score on a scale
Cohort 3: 400 mg QD, Cycle 33, Day 1
  Change From Baseline in Overall Score on Lee cGvHD Symptom Scale, Mean (Standard Deviation): −12.9 (—) score on a scale
Cohort 3: 400 mg QD, Cycle 35, Day 1
  Change From Baseline in Overall Score on Lee cGvHD Symptom Scale, Mean (Standard Deviation): −12.9 (—) score on a scale
Cohort 3: 400 mg QD, Cycle 39, Day 1
  Change From Baseline in Overall Score on Lee cGvHD Symptom Scale, Mean (Standard Deviation): −12.9 (—) score on a scale
Cohort 3: 400 mg QD, Cycle 41, Day 1
  Change From Baseline in Overall Score on Lee cGvHD Symptom Scale, Mean (Standard Deviation): −12.9 (—) score on a scale
Cohort 3: 400 mg QD, Cycle 43, Day 1
  Change From Baseline in Overall Score on Lee cGvHD Symptom Scale, Mean (Standard Deviation): −12.9 (—) score on a scale
Cohort 3: 400 mg QD, Cycle 45, Day 1
  Change From Baseline in Overall Score on Lee cGvHD Symptom Scale, Mean (Standard Deviation): −12.3 (—) score on a scale
Cohort 3: 400 mg QD, Cycle 47, Day 1
  Change From Baseline in Overall Score on Lee cGvHD Symptom Scale, Mean (Standard Deviation): −12.9 (—) score on a scale
Cohort 3: 400 mg QD, Cycle 49, Day 1
  Change From Baseline in Overall Score on Lee cGvHD Symptom Scale, Mean (Standard Deviation): −14.3 (—) score on a scale
Cohort 3: 400 mg QD, Cycle 51, Day 1
  Change From Baseline in Overall Score on Lee cGvHD Symptom Scale, Mean (Standard Deviation): −12.9 (—) score on a scale
Cohort 3: 400 mg QD, EOT
  Change From Baseline in Overall Score on Lee cGvHD Symptom Scale, Mean (Standard Deviation): 2.5 (11.9) score on a scale
Example 1
  clinically meaningful LSS improvement on consecutive assessments, nonresponders: 32%
  clinically meaningful LSS improvement on consecutive assessments, responders: 37%
Total, N=54
  LSS improvement, nonresponder, n/N: 7/19
  LSS improvement, responder, n/N: 20/35
  clinically significant LSS improvement, overall, % (95% CI): 50%
